From patent US7306811B2, “Fungicide composition based on halosulphone in particular for packaging” (priority 2000, dated 2007)

Tested on: six mushroom strains: Aspergillus Sydowi, Aspergillus Versicolor, Cladosporium Herbarum, Cladosporium Sphaerospernum, Penicillium Citrinum and Penicillium …
Test: Development of moulds on treated paper, standard AFNOR X 41 517
Conditions: overall judgement of the paper mould test
Experimental: The following test was carried out. Two surfaces of a woodless industrial paper weighing 80 g/m^2 dry, having a 1-minute COBB value of 25 to 35, were brought into contact with six mushroom strains for 14 days under the quality test conditions of the standard AFNOR X 41 517: the strains used were Aspergillus Sydowi, Aspergillus Versicolor, Cladosporium Herbarum, Cladosporium Sphaerospernum, Penicillium Citrinum and Penicillium Corylophilum. At the end of this period, visual assessment of the development of moulds was noted using a code from 0 to 6+, the value 6+ being allocated to the untreated control, while the notation 0 corresponded to no development of the seeded moulds.
The fungicide solutions used in this test were prepared in the same way as mentioned above. With regard to the fungicide T1, chlorothalonil was mixed in water. The fungicidal product T2 was prepared on the basis of di-iodo-ethyl-p-tolyl-sulphone only. The fungicide T3 was prepared from a mixture of chlorotalonyl and a zinc pyrithione. The fungicide T4 was prepared from a mixture of Amical (di-iodomethyl-p-tolyl-sulphone, and zinc pyrithione. Finally the fungicide T5 corresponds to the mixture given by way of example above according to the invention, i.e. a mixture of chlorotalonyl and di-iodo-methyl-p-tolyl-sulphone or Amical.

For `N#Cc1c(Cl)c(Cl)c(Cl)c(C#N)c1Cl` [Chlorothalonil alone T1, 2,4,5,6 tetrachloro-1,3 benzene dicarbonitrile], the “fungicidal quality in words, as seen from the Table” value was “average fungicide”.
With `Cc1ccc(S(=O)(=O)C(I)I)cc1` [DIMPTS alone T2, di-iodomethyl-p-tolyl-sulphone] the “fungicidal quality in words, as seen from the Table” value was “excellent fungicide”.
